# Earlier results, collected in publication PMC9141920, “Identification and Characterization of Dipeptidyl Peptidase-IV Inhibitory Peptides from Oat Proteins” (Foods, 2022).
# Tested on: DPP-IV
# Set-up: method as in PMID 6427168
# Conditions: Gly-Pro-pNA as the substrate; read-out: DPP-IV inhibition IC50; cited from earlier work
row,Substance,IC50 [µM]
1,VPL,16.8

# Tested on: DPP-IV
# Conditions: Chlorella Vulgaris protein-derived peptides, similar results reported; cited from earlier work
row,Substance,Inhibition mode on DPP-IV
1,VPW,mixed-type inhibitors
2,IPR,mixed-type inhibitors

# Same assay, conditions: Ruditapes Philippinarum protein-derived peptides, similar results reported; cited from earlier work
row,Substance,Inhibition mode on DPP-IV
1,FAGDDAPR [Ruditapes Philippinarum protein-derived peptide],mixed-type inhibitors
2,FLMESH,mixed-type inhibitors
3,FAGDDAPRA [Ruditapes Philippinarum protein-derived peptide],mixed-type inhibitors

# Same assay, conditions: camel milk protein-derived peptides, similar results reported; cited from earlier work
row,Substance,Inhibition mode on DPP-IV
1,ILDKVGINY [camel milk protein-derived peptide],mixed-type inhibitors
2,SPVVPF,mixed-type inhibitors

# Same assay, conditions: peptide from tryptic hydrolysate of oat globulin; read-out: DPP-IV inhibitory activity IC50; cited from earlier work
row,Substance,IC50 [µM]
1,LQAFEPLR,104

# Same assay, conditions: wheat-derived peptides; read-out: DPP-IV inhibition IC50; cited from earlier work
row,Substance,IC50 [µM]
1,MPF,~500
